According to the supplement of paper PMC11451515:

Test system: P12-Ichikawa
Test: cell viability relative to DMSO control; higher = less cytotoxic
Settings: 48 h
Outline: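 Viability, reported as a per-plate percentage of DMSO wells with cell-free wells as background, came from CellTiter-Glo One luminescence. Reading took place after 48 h at 37°C. Before that, NOMO1 or SEM (500 cells/well) or P12-Ichikawa (1000 cells/well) leukemia cells, adapted for at least four passages in each medium, were seeded in 1536-well plates (5 μl) and pin-dosed with library compounds in DMSO, 47 μM to 0.79 nM over 11 threefold points.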

[1] = HPLM + 10% dialyzed FBS, 0.000781 µM
[2] = HPLM + 10% dialyzed FBS, 0.00234 µM
[3] = HPLM + 10% dialyzed FBS, 0.00702 µM
[4] = HPLM + 10% dialyzed FBS, 0.0211 µM
[5] = HPLM + 10% dialyzed FBS, 0.0632 µM
[6] = HPLM + 10% dialyzed FBS, 0.19 µM
[7] = HPLM + 10% dialyzed FBS, 0.569 µM
[8] = HPLM + 10% dialyzed FBS, 1.71 µM
[9] = HPLM + 10% dialyzed FBS, 5.12 µM
[10] = HPLM + 10% dialyzed FBS, 15.4 µM
[11] = HPLM + 10% dialyzed FBS, 46.1 µM
[12] = RPMI 5 mM glucose + 10% FBS, 0.000781 µM
[13] = RPMI 5 mM glucose + 10% FBS, 0.00234 µM
[14] = RPMI 5 mM glucose + 10% FBS, 0.00702 µM
[15] = RPMI 5 mM glucose + 10% FBS, 0.0211 µM
[16] = RPMI 5 mM glucose + 10% FBS, 0.0632 µM
[17] = RPMI 5 mM glucose + 10% FBS, 0.19 µM
[18] = RPMI 5 mM glucose + 10% FBS, 0.569 µM
[19] = RPMI 5 mM glucose + 10% FBS, 1.71 µM
[20] = RPMI 5 mM glucose + 10% FBS, 5.12 µM
[21] = RPMI 5 mM glucose + 10% FBS, 15.4 µM
[22] = RPMI 5 mM glucose + 10% FBS, 46.1 µM
[23] = RPMI 5 mM glucose + 10% dialyzed FBS, 0.000781 µM
[24] = RPMI 5 mM glucose + 10% dialyzed FBS, 0.00234 µM
[25] = RPMI 5 mM glucose + 10% dialyzed FBS, 0.00702 µM
[26] = RPMI 5 mM glucose + 10% dialyzed FBS, 0.0211 µM
[27] = RPMI 5 mM glucose + 10% dialyzed FBS, 0.0632 µM
[28] = RPMI 5 mM glucose + 10% dialyzed FBS, 0.19 µM
[29] = RPMI 5 mM glucose + 10% dialyzed FBS, 0.569 µM
[30] = RPMI 5 mM glucose + 10% dialyzed FBS, 1.71 µM
[31] = RPMI 5 mM glucose + 10% dialyzed FBS, 5.12 µM
[32] = RPMI 5 mM glucose + 10% dialyzed FBS, 15.4 µM
[33] = RPMI 5 mM glucose + 10% dialyzed FBS, 46.1 µM

Row | SMILES | cell viability [1] [%] | cell viability [2] [%] | cell viability [3] [%] | cell viability [4] [%] | cell viability [5] [%] | cell viability [6] [%] | cell viability [7] [%] | cell viability [8] [%] | cell viability [9] [%] | cell viability [10] [%] | cell viability [11] [%] | cell viability [12] [%] | cell viability [13] [%] | cell viability [14] [%] | cell viability [15] [%] | cell viability [16] [%] | cell viability [17] [%] | cell viability [18] [%] | cell viability [19] [%] | cell viability [20] [%] | cell viability [21] [%] | cell viability [22] [%] | cell viability [23] [%] | cell viability [24] [%] | cell viability [25] [%] | cell viability [26] [%] | cell viability [27] [%] | cell viability [28] [%] | cell viability [29] [%] | cell viability [30] [%] | cell viability [31] [%] | cell viability [32] [%] | cell viability [33] [%]
1 | CC(C)(C)[C@H](NC(=O)c1ccc(N)c(Cl)c1)C(=O)N1CCC[C@H]1C(=O)N[C@H](C#N)CC(=O)O | 121 | 126 | 123 | 127 | 131 | 127 | 130 | 126 | 32.8 | 14.4 | 10.8 | 116 | 124 | 130 | 133 | 126 | 139 | 133 | 133 | 49.9 | 22.6 | 15.5 | 108 | 123 | 121 | 133 | 131 | 130 | 133 | 127 | 102 | 52.1 | 16.7
2 | CCOC(=O)\C1=C\[C@@H](OC(CC)CC)[C@H](NC(C)=O)[C@@H](N)C1 | 98.9 | 95 | 92.3 | 97.3 | 92.3 | 103 | 96.9 | 96 | 99.6 | 100 | 94.9 | 86 | 95.3 | 97.4 | 95.8 | 94.3 | 102 | 95.7 | 88.5 | 102 | 100 | 99.9 | 87.7 | 79.3 | 86.5 | 94.8 | 90.7 | 81.4 | 88.8 | 86.2 | 87.4 | 84.8 | 99.3
3 | OC1=CC2=C(C(=C1)O)C(=O)\C(=C(/O2)C3=CC(=C(O)C=C3)O)O | 98.8 | 99.2 | 108 | 113 | 112 | 111 | 107 | 110 | 116 | 102 | 79.3 | 93.8 | 107 | 103 | 103 | 109 | 105 | 110 | 101 | 107 | 101 | 85.9 | 107 | 108 | 113 | 103 | 117 | 100 | 117 | 108 | 118 | 109 | 73.2
4 | CN1CCN(CCCN2c3ccccc3Sc3ccc(C(F)(F)F)cc32)CC1 | 100 | 105 | 105 | 108 | 106 | 111 | 117 | 119 | 111 | 42 | 12.4 | 101 | 108 | 109 | 109 | 119 | 119 | 113 | 116 | 112 | 34.1 | 13.8 | 94.8 | 105 | 99.6 | 104 | 106 | 105 | 112 | 123 | 115 | 93.8 | 39.4
5 | COC1=CC=C(C=C1O)C/2=C/C(=O)C3=C(O2)C=C(O[C@@H]4O[C@H](CO[C@@H]5O[C@@H](C)[C@H](O)[C@@H](O)[C@H]5O)[C@@H](O)[C@H](O)[C@H]4O)C=C3O | 108 | 112 | 121 | 121 | 115 | 116 | 118 | 118 | 116 | 123 | 122 | 113 | 113 | 118 | 119 | 137 | 116 | 126 | 115 | 123 | 113 | 131 | 116 | 117 | 117 | 125 | 122 | 125 | 126 | 130 | 118 | 121 | 127
6 | CC(C)[C@H](N)C(=O)OCCOC[N]1C=NC2=C1\N=C(N)/NC2=O | 124 | 124 | 121 | 125 | 128 | 126 | 131 | 131 | 123 | 123 | 119 | 123 | 135 | 122 | 121 | 128 | 150 | 146 | 152 | 140 | 132 | 146 | – | – | – | – | – | – | – | – | – | – | –
7 | COc1cc(N2CCC(N(C)C)CC2)ccc1Nc1ncc(Cl)c(Nc2ccccc2P(C)(C)=O)n1 | 110 | 115 | 110 | 113 | 117 | 115 | 87.9 | 40.5 | 13.6 | 18.3 | 30.7 | 112 | 118 | 123 | 122 | 121 | 104 | 102 | 82.2 | 11.9 | 12.5 | 23.6 | 111 | 113 | 117 | 124 | 126 | 127 | 107 | 106 | 30.8 | 19.3 | 31.5
